Test results from patent US20250375471A1, “HEPARANASE INHIBITORS AND METHODS OF USE” (The Board of Regents of the University of Oklahoma, priority 2022, published 2025).
“Also recorded” adds a separate entry of the source.

Tests used:
[1] = background; cited from earlier work
[2] = target: T1, HIT antibody complex (Platelet Factor 4 and antibody) (Homo sapiens, UniProt P02776)
T1 sequence (P02776 32-101): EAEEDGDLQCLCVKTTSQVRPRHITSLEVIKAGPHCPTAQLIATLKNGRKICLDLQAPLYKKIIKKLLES
Description: ELISA methodology was used to measure the bound antibody as measured by absorbance (at 415 nm) of the product derived from a chromogenic substrate by the enzyme on the secondary antibody probe. […] Heparin derivatives treated to reduce their anticoagulant activity (non-anticoagulant heparin (NACH) or Roneparstat (Rone)) were also tested in the HIT assay.

[3] = target: T2, Recombinant human heparanase (Homo sapiens, UniProt Q9Y251); test: Heparanase challenge (PAGE, Stains-All detection); format: biochemical; conditions: heparanase 73 ng, sTestan 180 ng, 24 hours, pH 5, 30° C.
T2 construct: purchased R&D Systems; Minneapolis, MN
T2 sequence (Q9Y251 158-543 limits assumed): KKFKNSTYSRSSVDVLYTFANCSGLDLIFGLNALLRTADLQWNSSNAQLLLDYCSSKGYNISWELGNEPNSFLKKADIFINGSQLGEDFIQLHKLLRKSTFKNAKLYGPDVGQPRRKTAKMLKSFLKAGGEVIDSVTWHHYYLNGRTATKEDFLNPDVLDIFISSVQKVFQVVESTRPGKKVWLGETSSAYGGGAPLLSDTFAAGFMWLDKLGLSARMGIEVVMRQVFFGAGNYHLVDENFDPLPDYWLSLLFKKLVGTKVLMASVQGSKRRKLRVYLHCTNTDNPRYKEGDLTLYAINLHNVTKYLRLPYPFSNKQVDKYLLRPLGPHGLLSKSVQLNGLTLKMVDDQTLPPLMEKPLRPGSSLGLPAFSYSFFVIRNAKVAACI
T2 sequence (Q9Y251 36-109 limits assumed): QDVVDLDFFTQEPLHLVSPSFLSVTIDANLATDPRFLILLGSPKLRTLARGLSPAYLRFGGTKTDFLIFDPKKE
Description: The reactions were analyzed by polyacrylamide gel electrophoresis (20% gels, 1×TBE) and Stains-All detection.

[4] = target: T2, Recombinant human heparanase; test: Gel-based heparanase enzyme inhibition assay, fluorescent synthetic O-sulfated heparosan substrate; format: biochemical
Text: (§1) A gel-based assay was used to monitor the catalytic action of recombinant human heparanase (R&D Systems; Minneapolis, MN) on polysaccharide substrates. In these assays, fluorescent chains were monitored for cleavage; the disappearance of the parental substrate band is readily noticeable. Each chain contains multiple, overlapping heparanase cut sites so there is a gradual decrease in molecular weight over time. This simple, defined assay directly monitors the digestion of polysaccharides (i.e., glycans>˜20 monosaccharide units) that approximate naturally occurring substrates.
(§2) Two types of substrates were employed to follow heparanase activity: (i) a fluorescein end-labeled synthetic O-sulfated O-linked heparosan or (ii) polyacrylamide gel electrophoretically-purified rhodamine-tagged HS. Heparanase (1.3 ng/μl final) was incubated with substrate (synthetic, 57 ng/μl; HS, 3.3 ng/μl) for various times (typically ˜0.2-5 h) in 50 mM sodium acetate, pH 5, 1 mg/ml acetylated bovine serum albumin (Promega; Madison, WI) at 30° C. Aliquots of reactions were analyzed by polyacrylamide gel electrophoresis (2 μl of reaction/lane; 20% gels, 1×TBE) and fluorescence imaging (5-120 sec exposures; ChemiDoc MP). Then the overall size range of the polysaccharide fragments was followed by Stains-All detection.

[5] = target: T2, Recombinant human heparanase; test: Gel-based heparanase enzyme inhibition assay, natural heparan sulfate (HS) substrate; format: biochemical; conditions: various substrate to inhibitor ratios, 30 min time-point
Text: as §1, §2

For `CC(C)CCC[C@@H](C)[C@H]1CC[C@H]2[C@@H]3CC[C@H]4C[C@@H](O[C@@H]5O[C@H](COS(=O)(=O)O)[C@@H](O[C@H]6O[C@H](COS(=O)(=O)O)[C@@H](O[C@H]7O[C@H](COS(=O)(=O)O)[C@@H](O[C@H]8O[C@H](COS(=O)(=O)O)[C@@H](OS(=O)(=O)O)[C@H](OS(=O)(=O)O)[C@H]8OS(=O)(=O)O)[C@H](OS(=O)(=O)O)[C@H]7OS(=O)(=O)O)[C@H](OS(=O)(=O)O)[C@H]6OS(=O)(=O)O)[C@H](OS(=O)(=O)O)[C@H]5OS(=O)(=O)O)CC[C@]4(C)[C@H]3CC[C@]12C` [PG545], the cell toxicity [1] is listed as “lacks significant anticoagulant activity and cell toxicity”.

For Roneparstat, the “HIT complex reactivity (competition with plate-bound heparin)” value [2] was “less reactive”.

In the case of heparin, the “HIT complex reactivity (competition with plate-bound heparin)” value [2] is reported as “competed well”.

In the case of “sulfated or sulfonated testosteronan [sTestan]”, the “digestion/cleavage by human heparanase” value [3] is reported as “recalcitrant to the action of heparanase; also recorded: recalcitrant to digestion by heparanase”, the “fold more active on a molar basis than the heparosan substrate” value [4] is reported as at least 100 fold and the “heparanase inhibitor potency compared with generic Roneparstat” value ([4]; FIG. 7) is reported as “similarly potent; also recorded: potent competitive inhibitor of human heparanase similar to a known heparanase inhibitor”. For the same molecule, the “inhibition of heparanase cleavage of fluorescent sulfo-O-linked heparosan substrate” value ([4]; titration of inhibitor, 15-min time point, PAGE) was “inhibited the digestion of the substrate; also recorded: competitive inhibitor of heparanase” and the “inhibition of heparanase digestion of natural HS substrate” value [5] was “protecting natural HS from human heparanase digestion”.
